Measured values from paper PMC12772033, “A drought stress-responsive metabolite malate modulates stomatal responses through G-protein-dependent pathway in grapevine and Arabidopsis” (Molecular Horticulture, 2026).
Counter-ions that a name gives are not always drawn.

How the values were obtained:
VvSLAC1 [1] = target: T1, VvSLAC1 (Vitis vinifera, UniProt A0ABY9BHH9, F440A); assay: two-electrode voltage clamp, ramp mode, Xenopus oocytes; assay type: cell-based; settings: activator of open-gate mutant, pH 5.6, 1 mM LaCl3, ramp +60 to -120 mV
T1 construct: gene VitviT2T_002114; cDNA in pNB1u, cRNA expressed in Xenopus laevis oocytes; no tag mentioned; model trimmed 1-141 and 507-553

VvSLAC1 [2] = target: T1, VvSLAC1; assay: two-electrode voltage clamp, Xenopus oocytes; assay type: cell-based; settings: activator of open-gate mutant
[3] = pH 5.6, 1 mM LaCl3, -120 mV gap-free and I-V steps

T1 sequence (A0ABY9BHH9 entry or part of it F440A): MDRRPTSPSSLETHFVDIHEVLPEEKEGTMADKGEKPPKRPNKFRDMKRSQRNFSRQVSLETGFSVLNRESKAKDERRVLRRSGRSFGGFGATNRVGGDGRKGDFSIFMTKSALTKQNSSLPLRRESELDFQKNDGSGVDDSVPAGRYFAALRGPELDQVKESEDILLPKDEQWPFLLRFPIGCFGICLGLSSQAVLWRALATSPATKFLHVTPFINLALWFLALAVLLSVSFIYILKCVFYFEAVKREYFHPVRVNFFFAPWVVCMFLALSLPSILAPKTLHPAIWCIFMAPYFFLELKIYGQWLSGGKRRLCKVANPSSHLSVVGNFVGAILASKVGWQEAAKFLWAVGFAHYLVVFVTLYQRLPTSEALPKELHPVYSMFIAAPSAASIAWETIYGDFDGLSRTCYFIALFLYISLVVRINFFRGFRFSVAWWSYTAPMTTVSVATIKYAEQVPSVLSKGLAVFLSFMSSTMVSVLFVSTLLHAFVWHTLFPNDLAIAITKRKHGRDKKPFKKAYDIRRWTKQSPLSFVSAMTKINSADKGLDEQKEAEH

Question: For `O=C(O)CC(O)(CC(=O)O)C(=O)O` [Cit, citrate], which “current at 10 mM” value (VvSLAC1 [1]) is on record?
Answer: The metabolites other than monocarboxylates activated VvSLAC1F440A.

Question: `O=C(O)C[C@H](O)C(=O)O` [Mal, malate] was tested. Which “relative current at 10 mM” value (VvSLAC1 [2]; [3]) did it give?
Answer: Dicarboxylates, however, promoted the activity of VvSLAC1F440A.

Question: For `O=C(O)CC(=O)C(=O)O` [Oxal, oxalacetate], which “relative current at 10 mM” value (VvSLAC1 [2]; pH 5.6, 1 mM LaCl3, -120 mV gap-free) is on record?
Answer: Dicarboxylates, however, promoted the activity of VvSLAC1F440A.

Question: Which “relative current at 10 mM” value (VvSLAC1 [2]; [3]) does the source give for `O=C(O)/C=C/C(=O)O` [Fum, fumarate] here?
Answer: Dicarboxylates, however, promoted the activity of VvSLAC1F440A.
